Values quoted from earlier work in patent US9556167B2, “TLR-agonist-conjugated antibody recruiting molecules (TLR-ARMs)” (YALE UNIVERSITY, priority 2012, dated 2017).

Legend:
[1] = tested on: advanced prostate cancer patients
[2] = tested on: aggressive end-stage prostate cancer

Row | SMILES | prolongation of life on average [1] [months] | patients with reduced PSA levels and tumor sizes [2]
1 | CC(=O)O[C@@]12CO[C@@H]1C[C@H](O)[C@@]1(C)C(=O)[C@H](O)C3=C(C)[C@@H](OC(=O)[C@H](O)[C@@H](NC(=O)OC(C)(C)C)c4ccccc4)C[C@@](O)([C@@H](OC(=O)c4ccccc4)[C@H]21)C3(C)C [Taxotere] | 2.5 | 
2 | CC(=O)O[C@H]1CC[C@@]2(C)C(=CC[C@@H]3[C@@H]2CC[C@]2(C)C(c4cccnc4)=CC[C@@H]32)C1 [abiraterone acetate] |  | ≤ 70 % of patients
